Values after ≈ are worked out from the molar mass of the structure shown.
Settings: for aqueous solubility: pH 6.8

Structure (SMILES)	MDR1-MDCK efflux ratio	intrinsic clearance, human liver microsomes	intrinsic clearance, rat liver microsomes	aqueous solubility	fraction unbound, human plasma	fraction unbound, rat plasma
COc1cc(OC)cc(N2CCC(NCC3(C)CCOCC3)CC2)c1	1.55	≤ 4.74 mL/min/kg	58.2 mL/min/kg			
C=CCNC1=C2C[C@@H](C)C[C@@H](OC)[C@@H](O)[C@@H](C)/C=C(\C)[C@@H](OC(N)=O)[C@@H](OC)/C=C\C=C(/C)C(=O)NC(=CC1=O)C2=O		489 mL/min/kg	1010 mL/min/kg			
CC(=O)N1CCN(c2nc(C(F)(F)F)nc3sc(C)c(C)c23)CC1	1.22	43 mL/min/kg	217 mL/min/kg	51.3 µg/mL (≈ 143 µM)	0.0136	0.0421
CN(c1ccc(NC(=O)Nc2ccc(OC(F)(F)F)cc2)cc1)c1ccnc(Nc2cccc(S(N)(=O)=O)c2)n1	8.5	≤ 4.74 mL/min/kg	≤ 10.7 mL/min/kg	1.95 µg/mL (≈ 3.4 µM)		
Cc1ccc2c(CC(=O)N(C)CC(N)=O)coc2c1C				34.9 µg/mL (≈ 127 µM)		
CCCOc1c2c(nc3cc(C4CCOCC4)nn13)CCC2	22.3	≤ 4.74 mL/min/kg	16.1 mL/min/kg			
CC(C)CCNC(=O)c1ccc2ccccc2n1		168 mL/min/kg	640 mL/min/kg	7.28 µg/mL (≈ 30 µM)		
CC(=O)NC[C@H]1C[C@]2(C)[C@@H](CCCC[C@]2(C)O)N1CC1(O)CCCCCC1		51.2 mL/min/kg	587 mL/min/kg			
CN(C)C(=O)c1ccnc(NCc2cccc(C#N)c2)c1	5.72	≤ 4.74 mL/min/kg	69 mL/min/kg			
Cc1ccc(F)c(N(C#N)Cc2nccn2C(F)F)c1	0.613	19.9 mL/min/kg	225 mL/min/kg	45.1 µg/mL (≈ 161 µM)		
Cc1cnc(-c2nc(NCc3ccccn3)ncc2-c2onc(C)c2C)cn1	10.7	116 mL/min/kg	1040 mL/min/kg	59 µg/mL (≈ 158 µM)		
COc1ccc2nc(C)nc(NCc3ncc(C)o3)c2c1	1.39	23.5 mL/min/kg	296 mL/min/kg			
Clc1ccc2c(Oc3cccnc3)ncnc2c1	0.654	16.7 mL/min/kg	47 mL/min/kg	39.7 µg/mL (≈ 154 µM)		

Next, values leading:

MDR1-MDCK efflux ratio	intrinsic clearance, human liver microsomes	intrinsic clearance, rat liver microsomes	aqueous solubility	fraction unbound, human plasma	fraction unbound, rat plasma	Structure (SMILES)
17	23.8 mL/min/kg	5470 mL/min/kg	32.2 µg/mL (≈ 101 µM)			Cc1cc(NCc2ccnc(N3CCCC3)c2)c2ccccc2n1
0.958	4.93 mL/min/kg	684 mL/min/kg				Cc1cccnc1CN1CCC(O)(c2ccccc2)CC1
1.11	≤ 4.74 mL/min/kg	17.8 mL/min/kg	32.4 µg/mL (≈ 90.8 µM)			O=C(O)c1ccc(CN2CC[C@H](c3nc4cc(Cl)ccc4o3)C2)cc1
	432 mL/min/kg	1450 mL/min/kg				Cc1cc(OCC(=O)N2CCC(n3c(=O)[nH]c4ccccc43)CC2)ccc1Cl
			4.18 µg/mL (≈ 12.6 µM)			Cc1[nH]ncc1-c1nn2c(Cc3ccccc3Cl)nnc2s1
4.08	≤ 4.74 mL/min/kg	54.8 mL/min/kg	78.4 µg/mL (≈ 186 µM)			CCn1c(C)nc2cc(NC(=O)c3ccc(=O)n(CC(=O)N4CCCCC4)c3)ccc21
2.67	13.8 mL/min/kg	318 mL/min/kg	32.7 µg/mL (≈ 116 µM)			Cc1cnn(CC2CC2)c1NC(=O)/C=C/c1ccccc1
6.89	≤ 4.74 mL/min/kg	34.8 mL/min/kg	61.9 µg/mL (≈ 151 µM)			Cc1cnc(C(=O)N[C@H]2CCOC[C@@H]2O)cc1Cc1ccc(-c2cscn2)cc1
0.57	27.1 mL/min/kg	271 mL/min/kg				Cn1c(SCOCc2ccccc2)nnc1C1CC1
